Laboratory results as given in ChEMBL document CHEMBL3286219, “NF-κB inhibitory activity of polyoxygenated steroids from the Vietnamese soft coral Sarcophyton pauciplicatum” (Bioorg Med Chem Lett, 2014).
Activity calls are given as the source filed them. The calls are words filed in the database; no cut-off is given here.

What was measured:
Type in all cases: cell-based
[1] = test system: HaCaT; assay: Cytotoxicity against human HaCaT cells at 5 to 20 uM after 24 hrs by MTS assay
[2] = target: Nuclear factor NF-kappa-B complex (Homo sapiens, UniProt P19838+Q00653+Q04206); assay: Inhibition of NF-kappaB activation in human HaCaT cells assessed as inhibition of TNFalpha/IFNgamma-induced transcriptional activity after 24 hrs by Renilla luciferase assay
Sequence of Nuclear factor NF-kappa-B complex (P19838 1-433 limits assumed): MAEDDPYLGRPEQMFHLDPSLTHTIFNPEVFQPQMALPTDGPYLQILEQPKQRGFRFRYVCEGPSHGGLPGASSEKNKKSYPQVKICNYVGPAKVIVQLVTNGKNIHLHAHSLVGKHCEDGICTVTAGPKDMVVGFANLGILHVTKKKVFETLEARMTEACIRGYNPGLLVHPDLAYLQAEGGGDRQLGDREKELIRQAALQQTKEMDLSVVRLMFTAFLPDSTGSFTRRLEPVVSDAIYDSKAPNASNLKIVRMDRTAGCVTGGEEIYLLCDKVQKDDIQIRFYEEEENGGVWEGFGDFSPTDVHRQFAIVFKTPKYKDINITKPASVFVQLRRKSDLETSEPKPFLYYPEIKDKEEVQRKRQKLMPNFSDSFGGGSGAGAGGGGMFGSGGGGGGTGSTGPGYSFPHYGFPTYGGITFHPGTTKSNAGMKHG
Sequence of Nuclear factor NF-kappa-B complex (Q00653 1-454 limits assumed): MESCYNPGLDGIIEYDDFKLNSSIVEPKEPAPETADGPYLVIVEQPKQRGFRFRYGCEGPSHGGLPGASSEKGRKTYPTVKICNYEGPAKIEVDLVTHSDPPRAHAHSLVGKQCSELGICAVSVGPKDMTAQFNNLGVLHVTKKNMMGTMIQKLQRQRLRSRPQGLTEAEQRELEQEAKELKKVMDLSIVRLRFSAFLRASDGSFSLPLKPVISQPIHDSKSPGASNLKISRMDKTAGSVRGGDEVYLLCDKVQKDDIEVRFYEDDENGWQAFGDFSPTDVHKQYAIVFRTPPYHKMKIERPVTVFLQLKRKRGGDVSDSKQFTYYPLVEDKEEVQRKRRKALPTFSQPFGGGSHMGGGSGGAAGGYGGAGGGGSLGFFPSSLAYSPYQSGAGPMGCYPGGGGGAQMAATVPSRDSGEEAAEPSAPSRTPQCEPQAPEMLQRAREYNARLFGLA
Sequence of Nuclear factor NF-kappa-B complex (Q04206 whole entry): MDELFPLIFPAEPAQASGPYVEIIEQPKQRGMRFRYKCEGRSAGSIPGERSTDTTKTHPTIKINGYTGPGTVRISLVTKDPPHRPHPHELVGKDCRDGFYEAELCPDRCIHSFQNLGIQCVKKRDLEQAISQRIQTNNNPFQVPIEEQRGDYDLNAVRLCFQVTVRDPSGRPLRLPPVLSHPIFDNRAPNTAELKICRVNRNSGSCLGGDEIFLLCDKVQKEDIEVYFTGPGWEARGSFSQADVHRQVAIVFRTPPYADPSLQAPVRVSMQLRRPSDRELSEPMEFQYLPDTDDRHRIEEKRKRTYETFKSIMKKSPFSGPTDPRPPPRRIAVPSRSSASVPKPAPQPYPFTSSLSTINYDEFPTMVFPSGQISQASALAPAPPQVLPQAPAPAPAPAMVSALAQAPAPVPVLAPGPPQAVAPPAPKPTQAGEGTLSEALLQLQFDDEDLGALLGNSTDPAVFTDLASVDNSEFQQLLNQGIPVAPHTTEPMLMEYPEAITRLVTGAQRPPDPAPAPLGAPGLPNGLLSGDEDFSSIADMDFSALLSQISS

[3] = target: T1, Nuclear factor NF-kappa-B complex (Homo sapiens) (UniProt Q00653+P19838+Q04206); assay: Inhibition of NF-kappaB activation in human HaCaT cells assessed as inhibition of TNFalpha/IFNgamma-induced iNOS mRNA expression after 1 hr by RT-PCR
T1 sequence (P19838 whole entry, looked up): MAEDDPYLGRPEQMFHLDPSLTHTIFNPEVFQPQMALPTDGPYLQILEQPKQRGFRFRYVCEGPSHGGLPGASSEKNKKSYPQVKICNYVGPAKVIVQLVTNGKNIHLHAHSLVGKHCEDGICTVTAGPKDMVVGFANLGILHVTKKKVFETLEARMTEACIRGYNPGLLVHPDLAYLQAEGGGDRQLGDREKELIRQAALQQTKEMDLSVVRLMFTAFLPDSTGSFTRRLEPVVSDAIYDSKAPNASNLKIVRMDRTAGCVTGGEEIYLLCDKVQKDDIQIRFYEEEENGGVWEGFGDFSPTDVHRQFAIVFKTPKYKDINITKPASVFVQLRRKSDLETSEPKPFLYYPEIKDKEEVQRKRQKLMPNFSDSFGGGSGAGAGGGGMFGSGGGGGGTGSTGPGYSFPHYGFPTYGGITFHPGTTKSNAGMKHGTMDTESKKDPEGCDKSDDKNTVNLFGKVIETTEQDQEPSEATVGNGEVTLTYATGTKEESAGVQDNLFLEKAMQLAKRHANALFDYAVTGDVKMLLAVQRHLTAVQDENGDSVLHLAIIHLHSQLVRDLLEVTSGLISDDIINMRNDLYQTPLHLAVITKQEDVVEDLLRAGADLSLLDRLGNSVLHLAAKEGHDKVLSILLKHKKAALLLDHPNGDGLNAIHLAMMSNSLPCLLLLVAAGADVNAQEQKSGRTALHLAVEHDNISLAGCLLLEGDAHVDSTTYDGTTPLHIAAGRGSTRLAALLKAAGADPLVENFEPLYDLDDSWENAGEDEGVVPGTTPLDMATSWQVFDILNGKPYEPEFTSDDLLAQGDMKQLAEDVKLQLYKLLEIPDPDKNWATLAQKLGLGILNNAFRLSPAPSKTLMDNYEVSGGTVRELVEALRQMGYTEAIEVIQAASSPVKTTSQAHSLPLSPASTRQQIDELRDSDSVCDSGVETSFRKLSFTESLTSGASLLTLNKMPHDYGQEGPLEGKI
T1 sequence (Q00653 whole entry, looked up): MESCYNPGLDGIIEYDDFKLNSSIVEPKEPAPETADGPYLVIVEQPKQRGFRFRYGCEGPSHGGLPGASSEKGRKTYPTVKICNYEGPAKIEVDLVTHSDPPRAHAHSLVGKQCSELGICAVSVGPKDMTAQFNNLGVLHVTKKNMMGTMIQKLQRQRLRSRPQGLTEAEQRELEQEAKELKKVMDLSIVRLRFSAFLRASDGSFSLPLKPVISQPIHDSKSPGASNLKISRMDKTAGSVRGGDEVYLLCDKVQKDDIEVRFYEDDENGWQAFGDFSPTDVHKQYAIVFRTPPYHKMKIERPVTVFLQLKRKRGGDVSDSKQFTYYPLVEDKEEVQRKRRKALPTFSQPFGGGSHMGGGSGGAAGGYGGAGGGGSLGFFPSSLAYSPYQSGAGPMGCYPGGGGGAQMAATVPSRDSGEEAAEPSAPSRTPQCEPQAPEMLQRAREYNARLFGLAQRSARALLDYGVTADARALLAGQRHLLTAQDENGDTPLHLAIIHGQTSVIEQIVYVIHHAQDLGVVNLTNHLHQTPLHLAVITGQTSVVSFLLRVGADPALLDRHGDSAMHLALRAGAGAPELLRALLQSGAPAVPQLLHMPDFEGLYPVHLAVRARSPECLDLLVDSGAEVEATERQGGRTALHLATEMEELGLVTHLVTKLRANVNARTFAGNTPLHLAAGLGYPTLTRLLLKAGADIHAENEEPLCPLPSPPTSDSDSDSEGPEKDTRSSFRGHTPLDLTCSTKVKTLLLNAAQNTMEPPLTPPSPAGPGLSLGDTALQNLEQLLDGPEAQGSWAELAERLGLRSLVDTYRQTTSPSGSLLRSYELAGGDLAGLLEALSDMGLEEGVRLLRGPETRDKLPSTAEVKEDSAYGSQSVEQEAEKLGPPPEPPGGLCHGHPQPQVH
T1 sequence (Q04206 whole entry, looked up): as the sequence (Q04206 whole entry) above

[4] = target: T1, Nuclear factor NF-kappa-B complex (Homo sapiens); assay: Inhibition of NF-kappaB activation in human HaCaT cells assessed as inhibition of TNFalpha/IFNgamma-induced COX2 mRNA expression after 1 hr by RT-PCR
[5] = target: T1, Nuclear factor NF-kappa-B complex (Homo sapiens); assay: Inhibition of NF-kappaB activation in human HaCaT cells assessed as inhibition of TNFalpha/IFNgamma-induced ICAM-1 mRNA expression after 1 hr by RT-PCR
[6] = target: T1, Nuclear factor NF-kappa-B complex (Homo sapiens); assay: Inhibition of NF-kappaB activation in human HaCaT cells assessed as inhibition of TNFalpha/IFNgamma-induced transcriptional activity at 50 uM after 24 hrs by Renilla luciferase assay

EC50 [2]	inhibition [3]	inhibition [4]	inhibition [5]	inhibition [6]	SMILES	Activity [1]
8.27 µM	Dose-dependent effect	Dose-dependent effect	Dose-dependent effect	–	CC(=O)OC(C)(C)[C@@H](C)/C=C/[C@@H](C)[C@H]1CC[C@H]2[C@@H]3C[C@@H](O)[C@@]4(O)C[C@@H](O)C[C@@H](O)[C@]4(C)[C@H]3CC[C@]12C	Non-toxic
26.1 µM	–	–	–	–	CC(=O)OC(C)(C)[C@@H](C)CC[C@@H](C)[C@H]1CC[C@H]2[C@@H]3C[C@@H](O)[C@@]4(O)C[C@@H](O)C[C@@H](O)[C@]4(C)[C@H]3CC[C@]12C	Non-toxic
–	–	–	–	Active	C=C(C)[C@@H](C)CC[C@@H](C)[C@H]1CC[C@H]2[C@@H]3C[C@@H](O)[C@@]4(O)C[C@@H](O)C[C@@H](O)[C@]4(C)[C@H]3CC[C@]12C	Non-toxic
